Data: US9932637B2, “Genetic polymorphisms associated with cardiovascular disorders and drug response, methods of detection and uses thereof” (CELERA CORPORATION, priority 2003, dated 2018)
“And” between values parts separate entries of the source, which are not always exact repeats. Equal values may be shown once.

System: patients with prior myocardial infarction (CARE study)
Experiment: CARE aligned analysis (prospective and case/control design, white males): association of genotypes with pravastatin efficacy (Tables 13, 15)
Assay type: in vivo, human
Protocol: The data presented in Table 8 based on an association of genotypes with pravastatin efficacy of the CARE samples were further analyzed and presented in Table 13. The further analysis was performed to align the data obtained from the analysis of the CARE samples, which was a prospective study, to the analysis of the WOSCOP samples, which was a case/control study. Table 13 also presents an analysis of the association of genotypes with pravastatin efficacy in the WOSCOPs samples. Relative to the analysis performed on the data presented in Table 8, there are two significant differences to determine if the SNP influenced pravastatin efficacy. Data obtained from the CARE samples were separated by study design into two groups, those in the prospective study design group and those in the case/control study design group. The original care study contained 16 protocol defined cardiovascular disease defined endpoints and 150 other phenotypes. […] The control groups used to compare the data were also divided into two groups, the “all possible” control group and the “cleaner” control group. […] Because the participants in the WOSCOPs trial were all white males, only data obtained from white males in the CARE study were analysed. Data from the “all possible” and “cleaner” controls were compared to data obtained from the cases in the prospective study design while only data from “cleaner” controls were compared to cases in the case/control study design. The data from the case/control cohorts were analysed using conditional logistic regression (as opposed to logistic regression used for the original anaylsis).
The anaylsis was refined as described for both Tables 13 and 14.

[1] = CD6 hCV2553030, CARE, Case/Control, F MI/SD/NF MI
[2] = CD6 hCV2553030, CARE, Prospective, F MI/SD/NF MI
[3] = CD6 hCV25922320, CARE, Case/Control, F MI/SD/NF MI
[4] = CD6 hCV25922320, CARE, Case/Control, F MI/SD/NF MI, listed as Pravastatin
[5] = CD6 hCV25922320, CARE, Prospective, F MI/SD/NF MI
[6] = CD163 hCV25591528, CARE Case/Control, F&NF MI
[7] = CD163 hCV25591528, CARE Prospective, F&NF MI, listed as Pravastatin
[8] = CD163 hCV25591528, CARE, Case/Control, F MI/SD/NF MI, listed as Pravastatin
[9] = CD163 hCV25591528, CARE, Prospective, F MI/SD/NF MI
[10] = COL2A1 hCV3276198, CARE Case/Control, F&NF MI
[11] = COL11A1 hCV8400671, CARE Case/Control, F&NF MI
[12] = CR1 hCV25598594, CARE Case/Control, F&NF MI
[13] = CR1 hCV25598594, CARE Prospective, F&NF MI
[14] = CR1 hCV25598594, CARE, Case/Control, F MI/SD/NF MI
[15] = CR1 hCV25598594, CARE, Prospective, F MI/SD/NF MI
[16] = CXCL16 hCV8718197, CARE Prospective, F&NF MI
[17] = CXCL16 hCV8718197, CARE, Case/Control, F MI/SD/NF MI
[18] = CXCL16 hCV8718197, CARE, Prospective, F MI/SD/NF MI
[19] = CYBA hCV2038, CARE Case/Control, F&NF MI
[20] = ELN hCV1253630, CARE, Case/Control, F MI/SD/NF MI
[21] = ELN hCV1253630, CARE, Prospective, F MI/SD/NF MI
[22] = F7 hCV783138, CARE Case/Control, F&NF MI

CC[C@H](C)C(=O)O[C@H]1C[C@H](O)C=C2C=C[C@H](C)[C@H](CC[C@@H](O)C[C@@H](O)CC(=O)O)[C@H]21 [pravastatin]
Pravastatin vs placebo odds ratio, 2 rare alleles (CAPN10 hCV25614016, CARE, Prospective, F MI/SD/NF MI): 0.90 and 0.78 | OR of fatal MI/sudden death/non-fatal MI in the presence of statin treatment (CARE, hCV2442143, 0 rare alleles): 0.42 | OR of fatal MI/sudden death/non-fatal MI in the presence of statin treatment (CARE, hCV2442143, one rare allele, not statistically significant): 0.78 | OR of fatal MI/sudden death/non-fatal MI in the presence of statin treatment (CARE, hCV2442143, two rare alleles, not statistically significant): 1.16 | 2 Rare Alleles n/total, Pravastatin Patients (CD6 hCV2553030, CARE Case/Control, F&NF MI): 2/91 and 2/63 | 2 Rare Alleles n/total, Pravastatin Patients (CD6 hCV2553030, CARE Prospective, F&NF MI): 2/92 and 2/64 | Pravastatin vs placebo odds ratio, 0 rare alleles [1]: 0.97 and 0.92 | Pravastatin vs placebo odds ratio, 1 rare allele [1]: 0.80 and 0.68 | Pravastatin vs placebo odds ratio, 2 rare alleles [1]: 0.06 and 0.04 | Pravastatin vs placebo odds ratio, 0 rare alleles [2]: 0.97 and 0.88 | Pravastatin vs placebo odds ratio, 1 rare allele [2]: 0.81 and 0.72 | Pravastatin vs placebo odds ratio, 2 rare alleles [2]: 0.06 and 0.04 | 2 rare alleles n/total (%), pravastatin patients [3]: (17.9%) | Pravastatin vs placebo odds ratio, 2 rare alleles [3]: 1.44 | Pravastatin vs placebo odds ratio, 0 rare alleles [4]: 0.57 and 0.49 | Pravastatin vs placebo odds ratio, 1 rare allele [4]: 1.39 and 1.36 | Pravastatin vs placebo odds ratio, 2 rare alleles [4]: 1.09 | 2 rare alleles n/total (%), pravastatin patients [5]: (17.9%) | Pravastatin vs placebo odds ratio, 0 rare alleles [5]: 0.58 and 0.51 | Pravastatin vs placebo odds ratio, 1 rare allele [5]: 1.39 and 1.27 | Pravastatin vs placebo odds ratio, 2 rare alleles [5]: 1.09 and 1.17 | 2 Rare Alleles n/total, Pravastatin Patients [6]: 4/24 and 4/21 | Pravastatin vs placebo odds ratio, 2 rare alleles [6]: 1.23 and 0.64 | Pravastatin vs placebo odds ratio, 2 rare alleles (CD163 hCV25591528, CARE Prospective, F&NF MI): 0.59 | 2 Rare Alleles n/total, Pravastatin Patients [7]: 4/25 and 4/21 | Pravastatin vs placebo odds ratio, 2 rare alleles [7]: 1.14 | Pravastatin vs placebo odds ratio, 2 rare alleles (CD163 hCV25591528, CARE, Case/Control, F MI/SD/NF MI): 0.99 | Pravastatin vs placebo odds ratio, 0 rare alleles [8]: 0.96 and 0.88 | Pravastatin vs placebo odds ratio, 1 rare allele [8]: 0.29 and 0.27 | Pravastatin vs placebo odds ratio, 2 rare alleles [8]: 1.97 | Pravastatin vs placebo odds ratio, 0 rare alleles [9]: 0.97 and 0.86 | Pravastatin vs placebo odds ratio, 1 rare allele [9]: 0.30 and 0.28 | Pravastatin vs placebo odds ratio, 2 rare alleles [9]: 0.88 | 2 Rare Alleles (%), Pravastatin Patients [10]: (35.0%) | 2 Rare Alleles n/total, Pravastatin Patients [10]: 7/20 | 2 Rare Alleles (%), Pravastatin Patients [11]: (1.9%) | 2 Rare Alleles n/total, Pravastatin Patients [11]: 1/52 | 2 Rare Alleles (%), Pravastatin Patients [12]: (0.0%) | 2 Rare Alleles n/total, Pravastatin Patients [12]: 0/0 | 2 Rare Alleles (%), Pravastatin Patients [13]: (0.0%) | 2 Rare Alleles n/total, Pravastatin Patients [13]: 0/0 | Pravastatin vs placebo odds ratio, 0 rare alleles [14]: 0.86 and 0.78 | Pravastatin vs placebo odds ratio, 1 rare allele [14]: 0.09 and 0.07 | Pravastatin vs placebo odds ratio, 0 rare alleles [15]: 0.87 and 0.78 | Pravastatin vs placebo odds ratio, 1 rare allele [15]: 0.08 and 0.06 | 2 Rare Alleles n/total, Pravastatin Patients (CXCL16 hCV8718197, CARE Case/Control, F&NF MI): 32/233 and 32/160 | 2 Rare Alleles (%), Pravastatin Patients [16]: (19.8%) | 2 Rare Alleles n/total, Pravastatin Patients [16]: 32/237 and 32/162 | 2 rare alleles n/total (%), pravastatin patients [17]: (17.4%) | Pravastatin vs placebo odds ratio, 0 rare alleles [17]: 0.38 | Pravastatin vs placebo odds ratio, 1 rare allele [17]: 0.91 | Pravastatin vs placebo odds ratio, 2 rare alleles [17]: 1.12 | 2 rare alleles n/total (%), pravastatin patients [18]: (17.2%) | Pravastatin vs placebo odds ratio, 0 rare alleles [18]: 0.38 | Pravastatin vs placebo odds ratio, 1 rare allele [18]: 0.92 | Pravastatin vs placebo odds ratio, 2 rare alleles [18]: 1.06 | 2 Rare Alleles (%), Pravastatin Patients [19]: (16.9%) | 2 Rare Alleles n/total, Pravastatin Patients [19]: 23/136 | 2 rare alleles n/total (%), pravastatin patients [20]: (18.3%) | Pravastatin vs placebo odds ratio, 0 rare alleles [20]: 0.53 | Pravastatin vs placebo odds ratio, 1 rare allele [20]: 0.70 | Pravastatin vs placebo odds ratio, 2 rare alleles [20]: 1.64 | 2 rare alleles n/total (%), pravastatin patients [21]: (18.2%) | Pravastatin vs placebo odds ratio, 0 rare alleles [21]: 0.52 | Pravastatin vs placebo odds ratio, 1 rare allele [21]: 0.71 | Pravastatin vs placebo odds ratio, 2 rare alleles [21]: 1.60 | 2 Rare Alleles n/total, Pravastatin Patients (ELN hCV1253830, CARE Case/Control, F&NF MI): 28/204 and 28/133 | 2 Rare Alleles n/total, Pravastatin Patients (ELN hCV1253830, CARE Prospective, F&NF MI): 28/208 and 28/136 | 2 Rare Alleles (%), Pravastatin Patients [22]: (7.7%) | 2 Rare Alleles n/total, Pravastatin Patients [22]: 1/13 and 1/9 | 2 Rare Alleles (%), Pravastatin Patients (F7 hCV783138, CARE Prospective, F&NF MI): (7.7%)
